Calls of active or inactive are those of the source. No cut-off for these calls is given here.
Legend:
[1] = tested on: Quadruplex DNA; assay: Stabilization of c-Myc G4 quadruplex DNA (unknown origin) assessed as temperature at which 50% protein unfold by circular dichroism melting assay; type: nucleic-acid assay
[2] = tested on: HeLa; assay: Cytotoxicity against human HeLa cells assessed as reduction in cell viability by CCK8 assay; type: functional, cell-based
[3] = tested on: MDA-MB-231; assay: Cytotoxicity against human MDA-MB-231 cells assessed as reduction in cell viability by CCK8 assay; type: functional, cell-based
[4] = tested on: Quadruplex DNA; assay: Stabilization of c-MYC G4 quadruplex DNA Pu22 (unknown origin) assessed as temperature at which 50% protein unfold by circular dichroism melting assay; type: nucleic-acid assay
[5] = tested on: Quadruplex DNA; assay: Stabilization of c-MYC G4 quadruplex DNA (unknown origin) assessed as change in temperature incubated for 2 hrs in presence of telomer by FRET assay; type: nucleic-acid assay
[6] = tested on: MDA-MB-231; assay: Downregulation of c-MYC protein expression in human MDA-MB-231 cells at 1 to 4 uM measured after 24 hrs by Western blot analysis; type: functional, cell-based; settings: dose 1-4 µM
[7] = tested on: HEK293; assay: Downregulation of c-MYC expression in human HEK293 cells transfected with psiCHECK2 luciferase plasmid at 1 to 4 uM incubated for 24 hrs by dual luciferase reporter assay; type: functional, cell-based; settings: dose 1-4 µM
[8] = tested on: MDA-MB-231; assay: Induction of DNA damage in human MDA-MB-231 cells assessed as increase in gamma-H2AX fluorescence intensity at 4 uM measured after 24 hrs by immunofluorescence analysis; type: functional, cell-based
[9] = tested on: MDA-MB-231; assay: Induction of cell cycle arrest in human MDA-MB-231 cells assessed as accumulation of cells at S phase at 1 uM incubated for 24 hrs by propidium iodide staining based flow cytometry analysis (reference value: 15.50%); type: functional
[10] = tested on: MDA-MB-231; assay: Induction of cell cycle arrest in human MDA-MB-231 cells assessed as accumulation of cells at sub-G1 phase at 2 uM incubated for 24 hrs by propidium iodide staining based flow cytometry analysis (reference value: 0.57%); type: functional
[11] = tested on: MDA-MB-231; assay: Induction of cell cycle arrest in human MDA-MB-231 cells assessed as accumulation of cells at G0/G1 phase at 2 uM incubated for 24 hrs by propidium iodide staining based flow cytometry analysis (reference value: 66.35%); type: functional
[12] = tested on: MDA-MB-231; assay: Induction of cell cycle arrest in human MDA-MB-231 cells assessed as accumulation of cells at G2/M phase at 2 uM incubated for 24 hrs by propidium iodide staining based flow cytometry analysis (reference value: 17.58%); type: functional
[13] = tested on: MDA-MB-231; assay: Induction of cell cycle arrest in human MDA-MB-231 cells assessed as accumulation of cells at S phase at 4 uM incubated for 24 hrs by propidium iodide staining based flow cytometry analysis (reference value: 15.50%); type: functional
[14] = tested on: MDA-MB-231; assay: Induction of cell cycle arrest in human MDA-MB-231 cells assessed as accumulation of cells at G2/M phase at 4 uM incubated for 24 hrs by propidium iodide staining based flow cytometry analysis (reference value: 17.58%); type: functional
[15] = tested on: MDA-MB-231; assay: Induction of cell cycle arrest in human MDA-MB-231 cells assessed as downregulation of Cdc2 expression at 1 to 4 uM incubated for 24 hrs by Western blot analysis; type: functional, cell-based; settings: dose 1-4 µM
[16] = tested on: MDA-MB-231; assay: Induction of apoptosis in human MDA-MB-231 cells assessed as increase in late apoptotic cells at 1 to 4 uM incubated for 24 hrs by Annexin-V FITC/PI double staining based flow cytometry analysis; type: functional, cell-based; settings: dose 1-4 µM
[17] = tested on: MDA-MB-231; assay: Induction of apoptosis in human MDA-MB-231 cells assessed as decrease in necrotic cells at 1 to 4 uM incubated for 24 hrs by Annexin-V FITC/PI double staining based flow cytometric analysis; type: functional, cell-based; settings: dose 1-4 µM
[18] = tested on: MDA-MB-231; assay: Induction of autophagy in human MDA-MB-231 cells assessed as increase in fluorescence intensity of LC3B in cytoplasm at 4 uM measured after 24 hrs by immunofluorescence based analysis; type: functional, cell-based
[19] = tested on: MDA-MB-231; assay: Induction of autophagy in human MDA-MB-231 cells assessed as aggregation of p62 protein expression level at 1 to 4 uM incubated for 24 hrs by Western blot analysis; type: functional, cell-based; settings: dose 1-4 µM
[20] = tested on: MDA-MB-231; assay: Induction of apoptosis in human MDA-MB-231 cells assessed as caspase-3 cleavage at 1 to 4 uM incubated for 24 hrs by Western blot analysis; type: functional, cell-based; settings: dose 1-4 µM
[21] = tested on: MDA-MB-231; assay: Induction of apoptosis in human MDA-MB-231 cells assessed as caspase-9 cleavage at 1 to 4 uM incubated for 24 hrs by Western blot analysis; type: functional, cell-based; settings: dose 1-4 µM
[22] = tested on: MDA-MB-231; assay: Induction of apoptosis in human MDA-MB-231 cells assessed as PARP cleavage at 1 to 4 uM incubated for 24 hrs by Western blot analysis; type: functional, cell-based; settings: dose 1-4 µM
[23] = tested on: MDA-MB-231; assay: Cytotoxicity against human MDA-MB-231 cells assessed as inhibition of cell growth at 0 to 20 uM incubated for 24 hrs by CCK-8 assay; type: functional, cell-based; settings: MDA-MB-231, 24 h
[24] = tested on: MDA-MB-231; assay: Cytotoxicity against human MDA-MB-231 cells assessed as reduction in cell viability at 0 to 20 uM by CCK-8 assay; type: functional, cell-based; settings: dose 0-20 µM, time 24-72 hrs, TDE = time-dependent effect
[25] = tested on: MDA-MB-231; assay: Inhibition of cell migration in human MDA-MB-231 cells assessed as reduction in migration at 1 to 4 uM measured after 24 to 48 hrs by wound healing assay; type: functional, cell-based; settings: dose 1-4 µM, time 24-48 hrs
[26] = Cytotoxicity against human MCF-10A cells assessed as inhibition of cell proliferation by CCK-8 assay; type: toxicity, cell-based
[27] = tested on: MDA-MB-231; assay: Antitumor activity against human MDA-MB-231 cells xenografted in BALB/c nude mouse assessed as reduction in tumor weight at 5 mg/kg, ip administered every other day for 20 days and measured every 4 days; type: functional, organism-based; settings: time 20.0 day
[28] = Toxicity in BALB/c mouse xenografted with human MDA-MB-231 cells assessed as effect on body weight at 5 mg/kg, ip administered every other day for 20 days and measured every 4 days; type: organism-based; settings: in vivo, 480 h, time 20 day
[29] = Toxicity in BALB/c mouse xenografted with human MDA-MB-231 cells assessed as distress at 5 mg/kg, ip administered every other day for 20 days and measured every 4 days; type: organism-based; settings: in vivo, 480 h, time 20 day
[30] = Toxicity in BALB/c mouse xenografted with human MDA-MB-231 cells assessed as effect on heart at 5 mg/kg, ip administered every other day for 20 days and measured every 4 days; type: organism-based; settings: in vivo, 480 h, time 20 day
[31] = Toxicity in BALB/c mouse xenografted with human MDA-MB-231 cells assessed as effect on liver at 5 mg/kg, ip administered every other day for 20 days and measured every 4 days; type: organism-based; settings: in vivo, 480 h, time 20 day
[32] = Toxicity in BALB/c mouse xenografted with human MDA-MB-231 cells assessed as effect on lung at 5 mg/kg, ip administered every other day for 20 days and measured every 4 days; type: organism-based; settings: in vivo, 480 h, time 20 day
[33] = tested on: Quadruplex DNA; assay: Stabilization of c-MYC G4 quadruplex DNA KRAS (unknown origin) assessed as shift in temperature at which 50% protein unfold by circular dichroism melting assay
[34] = tested on: Quadruplex DNA; assay: Stabilization of c-MYC G4 quadruplex DNA HRAS (unknown origin) assessed as change in temperature at which 50% protein unfold by circular dichroism melting assay

Compound `CN1CCN(c2ccc(-c3nc(-c4ccc(-c5ccc(C(F)(F)F)cc5)cc4)[nH]c3-c3ccc(N4CCN(C)CC4)cc3)cc2)CC1` has a T [1] of 34.6 °C, an IC50 [2] of 2690 nM and an IC50 [3] of 1840 nM. For the same compound, the T [4] was 34.6 °C, the Activity [5] was “Active” and the Activity [6] was “Active”. For the same compound, the Activity [7] was “Active”, the Activity [8] was “Active” and the Activity [9] was 11.14%. It also gave an Activity [10] of 0.68%, an Activity [11] of 76.42% and an Activity [12] of 11.35%. The Activity [13] was 6.09%, the Activity [14] was 30.7% and the Activity [15] was “Active”. For the same compound, the Activity [16] was “Active”, the Activity [17] was “inactive” and the Activity [18] was “Active”. For the same compound, the Activity [19] was “Active”, the Activity [20] was “Active” and the Activity [21] was “Active”. The Activity [22] was “Active”, the IC50 [23] was 1840 nM and the Activity [24] was “Tde”. The inhibition [25] was “Active”, the IC50 [26] was 8700 nM and the Activity [27] was “Active”. For the same compound, the Activity [28] was “Non-Toxic”, the Activity [29] was “Non-Toxic” and the Activity [30] was “Non-Toxic”. The Activity [31] was “Non-Toxic”, the Activity [32] was “Non-Toxic” and the ΔTm [33] was 11.2 °C. It also gave a ΔTm [34] of 7.1 °C.

Source: ChEMBL document CHEMBL5380876, “Non-fused imidazole-biphenyl analogs repress triple-negative breast cancer growth by mainly stabilizing the c-MYC G-quadruplex via a multi-site binding mode” (Bioorg Med Chem, 2023)
